Test results as given in EP4656642A1, “ESTROGEN RECEPTOR PROTEOLYSIS TARGETING CHIMERA COMPOUND AND USE THEREOF” (GAN & LEE PHARM CO., LTD, priority 2023, dated 2024).

Experiments:
Type in all cases: cell-based
ERα [1] = target: T1, ERα (Homo sapiens, UniProt P03372); experiment: Degradation of ERα in T-47D cells (immunoblotting, 4 h); parameters: host or cells: T-47D
T1 sequence (P03372 1-595): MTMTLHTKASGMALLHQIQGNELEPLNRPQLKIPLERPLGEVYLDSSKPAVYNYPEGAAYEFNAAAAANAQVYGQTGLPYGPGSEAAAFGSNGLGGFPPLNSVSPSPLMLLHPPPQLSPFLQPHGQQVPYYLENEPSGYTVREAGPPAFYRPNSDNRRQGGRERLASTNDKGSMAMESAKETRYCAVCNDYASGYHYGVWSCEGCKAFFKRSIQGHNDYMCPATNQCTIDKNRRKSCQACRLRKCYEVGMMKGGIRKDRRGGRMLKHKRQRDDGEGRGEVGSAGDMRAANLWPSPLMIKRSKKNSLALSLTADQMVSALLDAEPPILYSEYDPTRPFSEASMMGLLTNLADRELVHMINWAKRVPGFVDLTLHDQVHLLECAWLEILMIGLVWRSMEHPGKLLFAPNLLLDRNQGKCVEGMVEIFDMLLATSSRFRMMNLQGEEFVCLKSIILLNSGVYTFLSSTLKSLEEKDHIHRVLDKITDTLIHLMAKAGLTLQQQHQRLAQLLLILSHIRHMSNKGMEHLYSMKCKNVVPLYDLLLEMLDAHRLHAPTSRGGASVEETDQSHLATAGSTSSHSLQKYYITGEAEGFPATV
In short: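 T-47D cells were treated with compound (final 0.15-1000 nM, DMSO) for 4 h at 37°C, 5% CO2. Cells were lysed in RIPA buffer with protease inhibitor, and ERα protein in the cleared lysate was measured by immunoblotting.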

ERα [2] = target: T1, ERα; experiment: Degradation of ERα in MCF-7 cells (immunoblotting, 4 h)
In short: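 MCF-7 cells treated 4 h at 37°C with compounds at 0.15-1000nM final. ERα in lysates measured by immunoblot, with band grayscale normalized to an internal reference protein. Degradation rate calculated against DMSO-treated control.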

MCF-7 cells = experiment: Inhibition of cell proliferation of MCF-7 cells (CCK-8, 9 days); conditions: treated for 9 days, CCK-8 kit (Table 6)
In short: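 MCF-7 cells seeded at 800 cells/well in DMEM with 10% FBS, exposed to a range of compound concentrations for 9 days at 37°C, 5% CO2. Viability read by CCK-8; IC50 derived for proliferation inhibition.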

SMILES	Degradation rate (%) of ERα in T-47D cells (ERα [1]; 1nM compound)	Degradation rate (%) of ERα in T-47D cells (ERα [1]; 10nM compound)	Degradation rate (%) of ERα in MCF-7 cells (ERα [2]; 1nM compound)	Degradation rate (%) of ERα in MCF-7 cells (ERα [2]; 10nM compound)	IC50 (MCF-7 cells)
O=C1CCC(N2Cc3c(ccc4c3OCC43CCN(C(=O)C4CCN(CC5CCN(c6ccc([C@@H]7c8ccc(O)cc8CC[C@@H]7c7ccccc7)cc6)CC5)CC4)CC3)C2=O)C(=O)N1 (stereo partly shown) [J8]	79%	81%	78%	85%	0.00489 µM
O=C1CCC(N2Cc3c(ccc4c3OCC43CCN(C(=O)C4CN(CC5CCN(c6ccc([C@@H]7c8ccc(O)cc8CC[C@@H]7c7ccccc7)cc6)CC5)C4)CC3)C2=O)C(=O)N1 (stereo partly shown) [J9]	78%	83%	63%	69%	0.00564 µM
CN(CC(=O)N1CCC2(CC1)COc1c2ccc2c1CN(C1CCC(=O)NC1=O)C2=O)CC1CCN(c2ccc([C@@H]3c4ccc(O)cc4CC[C@@H]3c3ccccc3)cc2)CC1 (stereo partly shown) [J10]	70%	88%	50%	73%	0.00612 µM
C[C@@H]1Cc2c(ccc3[nH]ncc23)C(c2ccc(N3CCC4(CCN(CC(=O)N5CCC6(CC5)COc5c6ccc6c5CN(C5CCC(=O)NC5=O)C6=O)C4)CC3)cn2)N1CC(F)(F)F (stereo partly shown) [J11]	52%	82%	40%	75%	4.37 µM
C[C@@H]1Cc2c(ccc3[nH]ncc23)C(c2ccc(N3CCC4(CCN(C(=O)CN5CCC6(CC5)COc5c6ccc6c5CN(C5CCC(=O)NC5=O)C6=O)C4)CC3)cn2)N1CC(F)(F)F (stereo partly shown) [J14]	55%	74%	5%	39%	9.66 µM
O=C1CCC(N2C(=O)c3cc4c(cc3C2=O)OC2(CCN(C3CC5(CCN(c6ccc([C@@H]7c8ccc(O)cc8CC[C@@H]7c7ccccc7)cc6)CC5)C3)CC2)C4)C(=O)N1 (stereo partly shown) [K1]	7%	27%	-2%	-3%	0.511 µM
O=C1CCC(N2Cc3c(ccc4c3OC3(CC4)CCN(C4CN(C5CCN(c6ccc([C@@H]7c8ccc(O)cc8CC[C@@H]7c7ccccc7)cc6)CC5)C4)CC3)C2=O)C(=O)N1 (stereo partly shown) [K2]	8%	16%	-10%	3%	1.99 µM
O=C1CCC(N2Cc3c(ccc4c3OCC43CCN(C4CC5(CCN(C6CCN(c7ccc([C@@H]8c9ccc(O)cc9CC[C@@H]8c8ccccc8)cc7)CC6)CC5)C4)CC3)C2=O)C(=O)N1 (stereo partly shown) [K4]	42%	72%	48%	53%	< 0.000256 µM
O=C1CCC(N2Cc3c(ccc4c3OCC43CCN(CC4CCN(C5CCN(c6ccc([C@@H]7c8ccc(O)cc8CC[C@@H]7c7ccccc7)cc6)CC5)CC4)CC3)C2=O)C(=O)N1 (stereo partly shown) [K6]	36%	58%	17%	62%	0.724 µM
O=C1CCC(N2Cc3c(ccc4c3OCC43CCN(C4CC5(C4)CN(C4CCN(c6ccc([C@@H]7c8ccc(O)cc8CC[C@@H]7c7ccccc7)cc6)CC4)C5)CC3)C2=O)C(=O)N1 (stereo partly shown) [K12]	18%	60%	3%	44%	0.03 µM
O=C1CCC(N2Cc3cc4c(cc3C2=O)OC2(CC4)CN(C3CCC4(CC3)CCN(C3CCN(c5ccc([C@@H]6c7ccc(O)cc7CC[C@@H]6c6ccccc6)cc5)CC3)CC4)C2)C(=O)N1 (stereo partly shown) [K14]	20%	67%	-3%	14%	0.22 µM
